Values joined by “and” are separate entries in the source; they are usually repeats but may differ in a detail not shown here. Equal values may be shown once.

From patent US9976141B2, “Compositions and methods for inhibiting gene expression of Hif2alpha” (Arrowhead Madison Inc., priority 2015, dated 2018) come the findings set out here.

The subject of this data set is human (tumor) Hif2α (EPAS1) mRNA. In words: Hif2α knockdown in orthotopic RCC tumor bearing mice, single injection of RNAi trigger-delivery polymer conjugate, RT-qPCR (Table 7). It is filed as in vivo. The conditions noted are these: single tail vein injection, relative to isotonic glucose. As for the experimental part: A pCR3.1 expression vector expressing the reporter gene secreted alkaline phosphatase (SEAP) under the CMV promoter was prepared by directional cloning of the SEAP coding sequence PCR amplified from Clontech's pSEAP2-basic vector. Convenient restriction sites were added onto primers used to amplify the SEAP coding sequence for cloning into the pCR3.1 vector (Invitrogen). The resultant construct pCR3-SEAP was used to create a SEAP-expressing A498 ccRCC cell line. Briefly, pCR3-SEAP plasmid was transfected into A498 ccRCC cells by electroporation following manufacturer's recommendation. Stable transfectants were selected by G418 resistance. Selected A498-SEAP clones were evaluated for SEAP expression and integration stability.
Female athymic nude mice were anesthetized with ˜3% isoflourane and placed in the right lateral decubitus position. A small, 0.5-1 cm, longitudinally abdominal incision in the left flank was made. Using a moist cotton swab, the left kidney was lifted out of the peritoneum and gently stabilized. Just before injection, a 1.0 ml syringe was filled with the cell/Matrigel mixture and a 27 gauge needle catheter was attached to the syringe tip. The filled syringe was then attached to a syringe pump (Harvard Apparatus, model PHD2000) and primed to remove air. The tip of a 27-gauge needle catheter attached to a syringe was inserted just below the renal capsule near the caudal pole and the tip of the needle was then carefully advanced cranially along the capsule 3-4 mm. A 10 μl aliquot of 2:1 (vol:vol) cell/matrigel mixture containing about 300,000 cells was slowly injected into the kidney parenchyma using a syringe pump. The needle was left in the kidney for 15-20 seconds to ensure the injection was complete. The needle was then removed from the kidney and a cotton swab was placed over the injection site for 30 seconds to prevent leakage of the cells or bleeding. The kidney was then gently placed back into the abdomen and the abdominal wall was closed. Serum was collected every 7-14 days after implantation to monitor tumor growth using a commercial SEAP assay kit. For most studies, tumor mice were used 5-6 weeks after implantation, when tumor measurements were typically around 4-8 mm.
RGD targeted HiF2α-RNAi trigger delivery conjugates. Delivery polymers were modified using RGD-PEG-HyNic, RGD-PEG-ACit-PNP, or RDG-PEG-FCitFP-TFP and PEG-dipeptide modifying agents. The indicated amount of polymer 126 or 100A polymer was modified with 8×PEG12-ACit-PABC-PNP/0.5× aldehyde-PEG24-FCit-PABC-PNP (with RGD mimic #1-PEG-HyNic using protocol #1) and the indicated amount of the indicated Hif2α RNAi trigger. Polymer 064 was modified according to protocol 7. Kidney RCC tumor-bearing mice were generated as described and treated with a single tail vein injection of isotonic glucose (G1) or the indicated Hif2α RNAi trigger-delivery polymer conjugate. Mice were euthanized at the indicated time after injection and total RNA was prepared from kidney tumor using Trizol reagent following manufacturer's recommendation. Relative HiF2α mRNA levels were determined by RT-qPCR as described below and compared to mice treated with delivery buffer (isotonic glucose) only.
In preparation for quantitative PCR, total RNA was isolated from tissue samples homogenized in TriReagent (Molecular Research Center, Cincinnati, Ohio) following the manufacturer's protocol. Approximately 500 ng RNA was reverse-transcribed using the High Capacity cDNA Reverse Transcription Kit (Life Technologies). For human (tumor) Hif2α (EPAS1) expression, pre-manufactured TaqMan gene expression assays for human Hif2α (Catalog #4331182) and CycA (PPIA) Catalog #: 4326316E) were used in biplex reactions in triplicate using TaqMan Gene Expression Master Mix (Life Technologies) or VeriQuest Probe Master Mix (Affymetrix). […]
In general terms: Real-time PCR tracks product formation cycle by cycle.

Where [1] appears, read: RNAi trigger 50 μg, polymer 064 125 μg.
[2] abbreviates: RNAi trigger 75 μg, polymer 064 187.5 μg.

On to “AD02692 (antisense UUUCAUGAAAUCGUUACGUUG; sense ACGUAACGAUUUCAUGAAAT; Hif2alpha RNAi agent antisense strand; modified_base 2,4,6,8,10,14,16,18 /mod_base = “2′-deoxy-2′-fluoro corresponding nucleoside”; modified_base 1,3,5,7,9,11,12,13,15,17,19,20,21 /mod_base = “2′-O-methyl corresponding nucleoside”; modified_base 2,3,20,21 /mod_base = “5′-phosphorothioate corresponding nucleotide”; Hif2alpha RNAi agent sense strand; modified_base 3,5,7,8,9,13,15,17 /mod_base = “2′-deoxy-2′-fluoro corresponding nucleoside”; modified_base 1,2,4,6,10,11,12,14,16,18,19 /mod_base = “2′-O-methyl corresponding nucleoside”; modified_base 20 /mod_base = “3′-3′-linked nucleotide”; modi)”, for which the “Relative Expression day 4 (Hif2α mRNA in kidney tumor)” value under setting [1] is listed as 0.092; the “Relative Expression day 4 (Hif2α mRNA in kidney tumor)” value under setting [2] was 0.089 and 0.121. For the substance “AD03265 (antisense UUUCAUGAAAUCGUUACGUUG; sense UAUACGUAACGAUUUCAUGAAAT; Hif2alpha RNAi agent antisense strand; modified_base 2,4,6,8,14 /mod_base = “2′-deoxy-2′-fluoro corresponding nucleoside”; modified_base 1,3,5,7,9,10,11,12,13,15,16,17,18,19,20,21 /mod_base = “2′-O-methyl corresponding nucleoside”; modified_base 2,3,20,21 /mod_base = “5′-phosphorothioate corresponding nucleotide”; Hif2alpha RNAi agent sense strand; modified_base 2 modified base = “2′-hydroxy corresponding nucleoside”; modified_base 10,11,12 /mod_base = “2′-deoxy-2′-fluoro corresponding nucleoside”; modified_base 1,3,4,5,6,7,8,9,13,14,15,16,17,18,19,20,21,22 /mod_base = “2′-O-methyl correspon)”, under setting [1], the “Relative Expression day 4 (Hif2α mRNA in kidney tumor)” value was found to be 0.294.

In the case of “AD01409 (antisense TUUCAUGAAAUCGUUACGUCGGCUAU; sense UAUAUCGACGUAACGAUUUCAUGAAA; Hif2alpha RNAi agent antisense strand; modified_base 25 modified base = “2′-hydroxy corresponding nucleoside”; modified_base 2,4,6,8,10,12,14,16,18,20 /mod_base = “2′-deoxy-2′-fluoro corresponding nucleoside”; modified_base 3,5,7,11,13,15,17,19,21,22,23,24,26 /mod_base = “2′-O-methyl corresponding nucleoside”; modified_base 9 /mod_base = “2′-3′ seco corresponding nucleotide”; modified_base 2,3,23,; Hif2alpha RNAi agent sense strand; modified_base 2,4 modified base = “2′-hydroxy corresponding nucleoside”; modified_base 6,8,10,12,14,16,18,20,22,24,26 /mod_base = “2′-deoxy-2′-fluoro correspondi)”, the “Relative Expression day 4 (Hif2α mRNA in kidney tumor)” value (RNAi trigger 150 μg, polymer 100A 300 μg) was 0.55. Regarding “AD03253 (antisense UUUCAUGAAAUCGUUACGUUG; sense ACGUAACGAUUUCAUGAAAT; Hif2alpha RNAi agent antisense strand; modified_base 2,4,6,8,14 /mod_base = “2′-deoxy-2′-fluoro corresponding nucleoside”; modified_base 1,3,5,7,9,10,11,12,13,15,16,17,18,19,20,21 /mod_base = “2′-O-methyl corresponding nucleoside”; modified_base 2,3,20,21 /mod_base = “5′-phosphorothioate corresponding nucleotide”; Hif2alpha RNAi agent sense strand; modified_base 7,8,9 /mod_base = “2′-deoxy-2′-fluoro corresponding nucleoside”; modified_base 1,2,3,4,5,6,10,11,12,13,14,15,16,17,18,19 /mod_base = “2′-O-methyl corresponding nucleoside”; modified_base 20 /mod_base = “3′-3′-linked nucleotide”; modi)”, the “Relative Expression day 4 (Hif2α mRNA in kidney tumor)” value under setting [1] was determined as 0.188. In the case of “AD02693 (antisense UUUCAUGAAAUCGUUACGUUG; sense ACGUAACGAUUUCAUGAAAT; Hif2alpha RNAi agent antisense strand; modified_base 2,4,6,8,10,14,16,18 /mod_base = “2′-deoxy-2′-fluoro corresponding nucleoside”; modified_base 1,3,5,7,9,11,12,13,15,17,19,20,21 /mod_base = “2′-O-methyl corresponding nucleoside”; modified_base 2,3,20,21 /mod_base = “5′-phosphorothioate corresponding nucleotide”; Hif2alpha RNAi agent sense strand; modified_base 5,7,9,13,15,17 /mod_base = “2′-deoxy-2′-fluoro corresponding nucleoside”; modified_base 1,2,3,4,6,8,10,11,12,14,16,18,19 /mod_base = “2′-O-methyl corresponding nucleoside”; modified_base 20 /mod_base = “3′-3′-linked nucleotide”; modi)”, the “Relative Expression day 4 (Hif2α mRNA in kidney tumor)” value under setting [2] is 0.122. Take “AD01020 (antisense TGUAAAACAAUUGUGUACUTT; sense AGUACACAAUUGUUUUACAT; Hif2alpha RNAi agent antisense strand; modified_base 2,4,8,10,12,14,16,18 /mod_base = “2′-deoxy-2′-fluoro corresponding nucleoside”; modified_base 3,5,7,9,11,13,15,17,19 /mod_base = “2′-O-methyl corresponding nucleoside”; modified_base 6 /mod_base = “2′-3′ seco corresponding nucleotide”; modified_base 21 /mod_base = “5′-phosphorothioate corresponding nucleotide”; Hif2alpha RNAi agent sense strand; modified_base 1,3,5,7,9,11,13,15,17,19 /mod_base = “2′-deoxy-2′-fluoro corresponding nucleoside”; modified_base 2,4,6,8,10,12,14,16,18 /mod_base = “2′-O-methyl corresponding nucleoside”; modified_b)”: for the setting “RNAi trigger 80 μg, polymer 126 400 μg”, the “Relative Expression day 4 (Hif2α mRNA in kidney tumor)” value was determined as 0.94.
